# Patent US10494380B2, “Nitrogen-containing tricyclic derivatives having HIV replication inhibitory activity” (priority 2015, dated 2019)
# Where two headings read alike, the source gives them in different places.
# Columns and labels:
# [1] = system: T125A mutant virus (HIV-1 NL-432 recombinant molecular clone, IN gene); assay: HIV replication inhibition assay against integrase 124/125 mutant virus (Test Example 2); format: cell-based
# Summary of the method: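 EC50 is the compound concentration blocking half of virus-induced cell death, measured by MTT (OD 560 nm, 690 nm reference) after 4 days at 37 °C. Integrase 124/125 mutant NL-432 virus from transfected 293T cells (60 pfu) was added to 2.5×10^4 MT-4 cells with compound.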
# HIV = format: cell-based; settings: EC50 in the presence of human serum (25%) versus without human serum, MT-4 cells
# Protocol: To confirm the influence of human serum on anti-HIV activity as necessary, human serum was added and determined EC50 in this condition. Human serum (100 μL/well) was dispensed into each anti-HIV active substance at a designated concentration dispensed 50 μL each in advance into a 96-well microtiter plate, and the plate was incubate at room temperature for 1 hour. To the serum-free plate, only culture medium (100 μL/well) was dispensed into 96-well microtiter plate. MT-4 cells (3×10^4 cells/well) was infected with 3 μL/well of HIV solution diluted to an appropriate concentration (600 pfu/50 μL) by the required number of wells and incubated at 37° C. for 1 hour. The infected cells were centrifuged at 1200 rpm for 5 minutes, the supernatant was discarded, and the infected cells were dispersed into culture medium for the required number of wells at 50 μL/well. Infected cell suspension was dispensed into a 96-well microtiter plate of which anti-HIV active substance and human serum prepared in advance. The cell mixture was mixed with a plate mixer and cultured in a CO2 incubator for 4 days. The EC50 in the presence of human serum was calculated in the same manner as in Test Example 1 and the ratio of EC50 in the presence of human serum and EC50 in the absence of human serum was calculated as the potency shift value. […]
# [2] = read-out: EC50 against T125A mutant virus, T125A mutant virus (HIV-1 NL-432 IN gene), MT-4 cells, MTT
# [3] = Human immunodeficiency virus 1, MT4, read-out: EC50 against T125A mutant virus, T125A mutant virus (HIV-1 NL-432 IN gene), MT-4 cells, MTT
# [4] = T125A mutant virus (HIV-1 NL-432 IN gene), MT-4 cells, MTT, read-out: EC50 against T125A mutant virus
SMILES,"EC50 [1, 2] [nM]",Potency shift value (HIV),"EC50 [1, 3] [nM]","EC50 [1, 4] [nM]"
Cc1c([C@H](OC(C)(C)C)C(=O)O)c(-c2ccc(Cl)cc2)c2cc(C)n3c2c1N(C)C1COCC13 (stereo partly shown) [Compound I-138],1.5,5.8,,
Cc1c([C@H](OC(C)(C)C)C(=O)O)c(-c2ccc(Cl)cc2)c2cc(C)n3c2c1N(Cc1cnccn1)CC3 [Compound I-152],,6.9,11,
Cc1c(-c2c([C@H](OC(C)(C)C)C(=O)O)c(C)c3c4c2cc(C)n4CCN3C)cc(F)c2c1CCCO2 [Compound I-159],,8.8,16,
Cc1ccc(-c2c([C@H](OC(C)(C)C)C(=O)O)c(C)c3c4c2cc(C)n4CCN3CCN2CCC(F)(F)C2)cc1 [Compound I-162],,7.5,35,
Cc1c([C@H](OC(C)(C)C)C(=O)O)c(-c2ccc(Cl)cc2)c2cc(C)n3c2c1N(c1nccs1)CC3 [Compound I-165],,8.3,6.9,
Cc1c([C@H](OC(C)(C)C)C(=O)O)c(-c2ccc(Cl)cc2)c2cc(C)n3c2c1N(C(N)=S)CC3 [Compound I-166],,3.5,62,
Cc1c([C@H](OC(C)(C)C)C(=O)O)c(-c2ccc(Cl)cc2)c2cc(C)n3c2c1N(C(=O)C(=O)N(C)C)[C@H](C)C3 [Compound I-169],,30,50,
Cc1c([C@H](OC(C)(C)C)C(=O)O)c(-c2ccc(Cl)cc2)c2cc(C)n3c2c1N(C(N)=O)CC3 [Compound I-173],,4,71,
Cc1c([C@H](OC(C)(C)C)C(=O)O)c(-c2ccc(Cl)cc2)c2cc(C)n3c2c1C=CC3 [Compound I-174],,14,55,
Cc1ccc(-c2c([C@H](OC(C)(C)C)C(=O)O)c(F)c3c4c2cc(C)n4CCN3C)cc1 [Compound I-179],,23,83,
Cc1c([C@H](OC(C)(C)C)C(=O)O)c(-c2ccc(Cl)cc2)c2cc(C)n3c2c1N(C1=NCCO1)CC3 [Compound I-180],,7.8,13,
Cc1c([C@H](OC(C)(C)C)C(=O)O)c(-c2ccc(Cl)cc2)c2cc(C)n3c2c1N(c1ncc(O)cn1)CC3 [Compound I-183],,7.6,31,
COc1cnc(N2CCn3c(C)cc4c(-c5ccc(F)cc5)c([C@H](OC(C)(C)C)C(=O)O)c(C)c2c43)nc1 [Compound I-185],,15,7.1,
Cc1ccc(-c2c(C(OC(C)(C)C)C(=O)O)c(C#N)c3c4c2cc(C)n4CCN3C)cc1 (stereo not shown) [Compound I-186],,15,20,
Cc1c([C@H](OC(C)(C)C)C(=O)O)c(-c2ccc(Cl)cc2)c2cc(C)n3c2c1OCCC3 [Compound I-188],,11,14,
Cc1c([C@H](OC(C)(C)C)C(=O)O)c(-c2c(F)cc(F)cc2F)c2cc(C)n3c2c1N(C)CC3 [Compound I-191],,7.4,13,
COc1ccc(N2CCn3c(C)cc4c(-c5ccc(Cl)cc5)c([C@H](OC(C)(C)C)C(=O)O)c(C)c2c43)nc1 [Compound I-192],,11,4.6,
Cc1c([C@H](OC(C)(C)C)C(=O)O)c(-c2ccc(Cl)cc2)c2cc(C)n3c2c1N(c1ncccc1F)CC3 [Compound I-193],,21,2.8,
COc1cccc(N2CCn3c(C)cc4c(-c5ccc(Cl)cc5)c([C@H](OC(C)(C)C)C(=O)O)c(C)c2c43)n1 [Compound I-194],,13,12,

SMILES,"EC50 [1, 2] [nM]",Potency shift value (HIV),"EC50 [1, 3] [nM]","EC50 [1, 4] [nM]"
Cc1c([C@H](OC(C)(C)C)C(=O)O)c(-c2ccc(Cl)cc2)c2cc(C)n3c2c1OC(C)C3 (stereo partly shown) [Compound I-195],,12,15,
Cc1c([C@H](OC(C)(C)C)C(=O)O)c(-c2ccc(Cl)cc2)c2cc(C)n3c2c1OC(C)C3 (stereo partly shown) [Compound I-196],18,11,,
COCCOC(=O)Nc1cnc(N2CCn3c(C)cc4c(-c5ccc(C)cc5)c([C@H](OC(C)(C)C)C(=O)O)c(C)c2c43)nc1 [Compound I-203],,30,,13
Cc1ccc(-c2c([C@H](OC(C)(C)C)C(=O)O)c(C)c3c4c2cc(C)n4CCN3CCOCC(F)F)cc1 [Compound I-206],,9.7,,71
CCOCCN1CCn2c(C)cc3c(-c4ccc(C)cc4)c([C@H](OC(C)(C)C)C(=O)O)c(C)c1c32 [Compound I-207],,8.1,,19
Cc1ccc(-c2c([C@H](OC(C)(C)C)C(=O)O)c(C)c3c4c2cc(C)n4CCN3CCOC(F)F)cc1 [Compound I-208],,11,,24
Cc1ccc(-c2c([C@H](OC(C)(C)C)C(=O)O)c(C)c3c4c2cc(C)n4CCN3CCF)cc1 [Compound I-209],,24,,16
Cc1ccc(-c2c([C@H](OC(C)(C)C)C(=O)O)c(C)c3c4c2cc(C)n4CCN3S(=O)(=O)CCO)cc1 [Compound I-210],,5.4,,65
Cc1ccc(-c2c([C@H](OC(C)(C)C)C(=O)O)c(C)c3c4c2cc(C)n4CCN3CC2COC2)cc1 [Compound I-211],,7.5,,20
Cc1ccc(-c2c([C@H](OC(C)(C)C)C(=O)O)c(C)c3c4c2cc(C)n4CCN3c2ncc(C3=CCN(C)CC3)cn2)cc1 [Compound I-212],,3.9,,6.8
Cc1ccc(-c2c([C@H](OC(C)(C)C)C(=O)O)c(C)c3c4c2cc(C)n4CCN3c2cccc(CO)n2)cc1 [Compound I-216],,9.2,,20
Cc1ccc(-c2c([C@H](OC(C)(C)C)C(=O)O)c(C)c3c4c2cc(C)n4CCN3c2cccc(CN3CCOCC3)n2)cc1 [Compound I-217],,9.1,,39
Cc1c([C@H](OC(C)(C)C)C(=O)O)c(-c2ccc(Cl)cc2)c2cc(C)n3c2c1N(C(=O)Nc1ccccc1N)CC3 [Compound I-218],,5.5,,20
Cc1c([C@H](OC(C)(C)C)C(=O)O)c(-c2ccc(Cl)cc2)c2cc(C)n3c2c1N(c1cccc(=O)n1C)CC3 [Compound I-219],,7.6,,43
CNCCOc1cnc(N2CCn3c(C)cc4c(-c5ccc(C)cc5)c([C@H](OC(C)(C)C)C(=O)O)c(C)c2c43)nc1 [Compound I-224],,3.3,,79
Cc1ccc(-c2c([C@H](OC(C)(C)C)C(=O)O)c(C)c3c4c2cc(C)n4CCN3c2ncc(OCCN(C)S(C)(=O)=O)cn2)cc1 [Compound I-225],,9.7,,11
Cc1cc2c(-c3ccc(Cl)cc3)c([C@H](OC(C)(C)C)C(=O)O)c(Cl)c3c2n1CCN3C [Compound I-228],,9.1,2.6,
COc1cnc(N2CCn3c(C)cc4c(-c5ccccc5)c([C@H](OC(C)(C)C)C(=O)O)c(C)c2c43)nc1 [Compound I-231],,22,10,
Cc1c([C@H](OC(C)(C)C)C(=O)O)c(-c2ccc(Cl)cc2)c2cc(C)n3c2c1N(C(=O)Nc1ccccc1Br)CC3 [Compound I-232],,8.6,34,
